Experimental data reported in BigSolDB 2.1.

In the case of `NNC(=O)c1ccccc1O`, the solubility (mole fraction) (in ethanol, 283.15 K) is reported as 0.0095, the solubility (mole fraction) (in ethanol, 288.15 K) is reported as 0.0115 and the solubility (mole fraction) (in ethanol, 293.15 K) is reported as 0.0132. The solubility (mole fraction) (in ethanol, 298.15 K) was 0.0161, the solubility (mole fraction) (in ethanol, 303.15 K) was 0.0189 and the solubility (mole fraction) (in ethanol, 308.15 K) was 0.0224. For the same molecule, the solubility (mole fraction) (in ethanol, 313.15 K) was 0.0278, the solubility (mole fraction) (in ethanol, 318.15 K) was 0.0316 and the solubility (mole fraction) (in ethanol, 323.15 K) was 0.0379. For the same molecule, the solubility (mole fraction) (in isopropanol, 283.15 K) was 0.00719, the solubility (mole fraction) (in isopropanol, 288.15 K) was 0.00841 and the solubility (mole fraction) (in isopropanol, 293.15 K) was 0.0102. The solubility (mole fraction) (in isopropanol, 298.15 K) was 0.0124, the solubility (mole fraction) (in isopropanol, 303.15 K) was 0.015 and the solubility (mole fraction) (in isopropanol, 308.15 K) was 0.0181. It also gave a solubility (mole fraction) (in isopropanol, 313.15 K) of 0.0219, a solubility (mole fraction) (in isopropanol, 318.15 K) of 0.0261 and a solubility (mole fraction) (in isopropanol, 323.15 K) of 0.0316. For the same molecule, the solubility (mole fraction) (in methanol, 283.15 K) was 0.0122, the solubility (mole fraction) (in methanol, 288.15 K) was 0.015 and the solubility (mole fraction) (in methanol, 293.15 K) was 0.017. The solubility (mole fraction) (in methanol, 298.15 K) was 0.0198, the solubility (mole fraction) (in methanol, 303.15 K) was 0.0243 and the solubility (mole fraction) (in methanol, 308.15 K) was 0.0278. For the same molecule, the solubility (mole fraction) (in methanol, 313.15 K) was 0.0326, the solubility (mole fraction) (in methanol, 318.15 K) was 0.0382 and the solubility (mole fraction) (in methanol, 323.15 K) was 0.0462. It also gave a solubility (mole fraction) (in n-butanol, 283.15 K) of 0.00861, a solubility (mole fraction) (in n-butanol, 288.15 K) of 0.00985 and a solubility (mole fraction) (in n-butanol, 293.15 K) of 0.0115. It also gave a solubility (mole fraction) (in n-butanol, 298.15 K) of 0.013, a solubility (mole fraction) (in n-butanol, 303.15 K) of 0.0148 and a solubility (mole fraction) (in n-butanol, 308.15 K) of 0.0165. For the same molecule, the solubility (mole fraction) (in n-butanol, 313.15 K) was 0.0188, the solubility (mole fraction) (in n-butanol, 318.15 K) was 0.0216 and the solubility (mole fraction) (in n-butanol, 323.15 K) was 0.025. For the same molecule, the solubility (mole fraction) (in n-propanol, 283.15 K) was 0.00748, the solubility (mole fraction) (in n-propanol, 288.15 K) was 0.0097 and the solubility (mole fraction) (in n-propanol, 293.15 K) was 0.0112. For the same molecule, the solubility (mole fraction) (in n-propanol, 298.15 K) was 0.0138, the solubility (mole fraction) (in n-propanol, 303.15 K) was 0.016 and the solubility (mole fraction) (in n-propanol, 308.15 K) was 0.0189. For the same molecule, the solubility (mole fraction) (in n-propanol, 313.15 K) was 0.024, the solubility (mole fraction) (in n-propanol, 318.15 K) was 0.0283 and the solubility (mole fraction) (in n-propanol, 323.15 K) was 0.0334. It also gave a solubility (mole fraction) (in water, 283.15 K) of 0.0122, a solubility (mole fraction) (in water, 288.15 K) of 0.0146 and a solubility (mole fraction) (in water, 293.15 K) of 0.0182. It also gave a solubility (mole fraction) (in water, 298.15 K) of 0.0223, a solubility (mole fraction) (in water, 303.15 K) of 0.028 and a solubility (mole fraction) (in water, 308.15 K) of 0.0355. It also gave a solubility (mole fraction) (in water, 313.15 K) of 0.0435, a solubility (mole fraction) (in water, 318.15 K) of 0.0541 and a solubility (mole fraction) (in water, 323.15 K) of 0.0665.
For `NNC(=O)c1ccccc1`, the solubility (mole fraction) (in ethanol, 283.15 K) was 0.0137, the solubility (mole fraction) (in ethanol, 288.15 K) was 0.0169 and the solubility (mole fraction) (in ethanol, 293.15 K) was 0.0203. For the same molecule, the solubility (mole fraction) (in ethanol, 298.15 K) was 0.0283, the solubility (mole fraction) (in ethanol, 303.15 K) was 0.0376 and the solubility (mole fraction) (in ethanol, 308.15 K) was 0.0481. The solubility (mole fraction) (in ethanol, 313.15 K) was 0.0605, the solubility (mole fraction) (in ethanol, 318.15 K) was 0.0805 and the solubility (mole fraction) (in ethanol, 323.15 K) was 0.101. The solubility (mole fraction) (in isopropanol, 283.15 K) was 0.0112, the solubility (mole fraction) (in isopropanol, 288.15 K) was 0.0135 and the solubility (mole fraction) (in isopropanol, 293.15 K) was 0.0173. The solubility (mole fraction) (in isopropanol, 298.15 K) was 0.0231, the solubility (mole fraction) (in isopropanol, 303.15 K) was 0.0299 and the solubility (mole fraction) (in isopropanol, 308.15 K) was 0.0384. The solubility (mole fraction) (in isopropanol, 313.15 K) was 0.0489, the solubility (mole fraction) (in isopropanol, 318.15 K) was 0.0623 and the solubility (mole fraction) (in isopropanol, 323.15 K) was 0.0761. The solubility (mole fraction) (in methanol, 283.15 K) was 0.0363, the solubility (mole fraction) (in methanol, 288.15 K) was 0.0425 and the solubility (mole fraction) (in methanol, 293.15 K) was 0.0515. For the same molecule, the solubility (mole fraction) (in methanol, 298.15 K) was 0.0605, the solubility (mole fraction) (in methanol, 303.15 K) was 0.0727 and the solubility (mole fraction) (in methanol, 308.15 K) was 0.0843. The solubility (mole fraction) (in methanol, 313.15 K) was 0.103, the solubility (mole fraction) (in methanol, 318.15 K) was 0.118 and the solubility (mole fraction) (in methanol, 323.15 K) was 0.137. The solubility (mole fraction) (in n-butanol, 283.15 K) was 0.0087, the solubility (mole fraction) (in n-butanol, 288.15 K) was 0.0107 and the solubility (mole fraction) (in n-butanol, 293.15 K) was 0.0132. For the same molecule, the solubility (mole fraction) (in n-butanol, 298.15 K) was 0.0185, the solubility (mole fraction) (in n-butanol, 303.15 K) was 0.0244 and the solubility (mole fraction) (in n-butanol, 308.15 K) was 0.0321. For the same molecule, the solubility (mole fraction) (in n-butanol, 313.15 K) was 0.041, the solubility (mole fraction) (in n-butanol, 318.15 K) was 0.0519 and the solubility (mole fraction) (in n-butanol, 323.15 K) was 0.0665. For the same molecule, the solubility (mole fraction) (in n-propanol, 283.15 K) was 0.0129, the solubility (mole fraction) (in n-propanol, 288.15 K) was 0.0155 and the solubility (mole fraction) (in n-propanol, 293.15 K) was 0.019. It also gave a solubility (mole fraction) (in n-propanol, 298.15 K) of 0.026, a solubility (mole fraction) (in n-propanol, 303.15 K) of 0.0319 and a solubility (mole fraction) (in n-propanol, 308.15 K) of 0.0421. It also gave a solubility (mole fraction) (in n-propanol, 313.15 K) of 0.0536, a solubility (mole fraction) (in n-propanol, 318.15 K) of 0.068 and a solubility (mole fraction) (in n-propanol, 323.15 K) of 0.0834. The solubility (mole fraction) (in water, 283.15 K) was 0.00505, the solubility (mole fraction) (in water, 288.15 K) was 0.00662 and the solubility (mole fraction) (in water, 293.15 K) was 0.00868. The solubility (mole fraction) (in water, 298.15 K) was 0.0116, the solubility (mole fraction) (in water, 303.15 K) was 0.0154 and the solubility (mole fraction) (in water, 308.15 K) was 0.0203. It also gave a solubility (mole fraction) (in water, 313.15 K) of 0.0267, a solubility (mole fraction) (in water, 318.15 K) of 0.0348 and a solubility (mole fraction) (in water, 323.15 K) of 0.0453.
